Experimental data as given in patent US7419780B2, “Methods and assays for screening protein targets” (The Trustees of Columbia University in the City of New York, priority 2000, dated 2008).

How the values were obtained:
Type in all cases: cell-based, S. cerevisiae
Conditions in all cases: 1 uM small molecule, difference to activity without small molecule, average of two trials
[1] = biological target: T1, LexA (GSG)2mDHFR / B42 (GSG)rGR2 (UniProt P00375+P06536, C656G/F620S); experiment: β-galactosidase activity assay, strain V504Y
T1 construct: rat Glucocorticoid Receptor (aa 524-795) with point mutations; expressed in transfected cells; host or cells: S. cerevisiae FY250
T1 sequence (P00375 1-187): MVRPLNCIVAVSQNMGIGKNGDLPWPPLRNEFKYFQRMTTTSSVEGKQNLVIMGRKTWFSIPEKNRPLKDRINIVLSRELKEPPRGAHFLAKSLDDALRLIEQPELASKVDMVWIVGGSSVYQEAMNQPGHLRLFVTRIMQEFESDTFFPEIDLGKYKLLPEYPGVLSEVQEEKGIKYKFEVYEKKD
T1 sequence (P06536 524-795 F620S/C656G limits assumed): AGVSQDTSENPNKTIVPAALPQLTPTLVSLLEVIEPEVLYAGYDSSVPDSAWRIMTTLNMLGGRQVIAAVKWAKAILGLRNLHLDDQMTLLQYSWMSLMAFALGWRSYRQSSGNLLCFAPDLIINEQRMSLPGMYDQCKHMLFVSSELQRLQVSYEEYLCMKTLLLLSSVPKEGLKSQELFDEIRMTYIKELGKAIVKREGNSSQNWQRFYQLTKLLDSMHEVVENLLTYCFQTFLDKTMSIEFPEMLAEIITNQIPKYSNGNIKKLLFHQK
From the text: (§1) Table III explains the components of each strain. Each strain was constructed from the parent yeast strain FY250 and also contains the pMW106 plasmid, which has the LacZ reporter gene that is turned on only in when the LexA DNA binding domain and the B42 activation are brought in tot he vicinity of each other. We use several different strains because we use DHFR from two different species, mDHFR is from murine, while eDHFR is from E. coli. We are asl oable to switch the small moleculebinding domains. For example, the strain containing LexA-eDHFR with B42-rGH2 is a different strain and behaves differently from the strain containing LexA-rGR2 with B42-eDHFR. We also put in short 6 amino acid linkers between the two domains of our protein chimeras and thus these are different strain as well.
(§2) The results in Table IV are averages of two separate trials. Each strain was examined with small molecules and without small molecules. The absolute activity is given as the β-galactisidase activity […]. The average β-galactosidse activity for a strain without small molecule (i.e. the negative control) was about 100 β-galactosidase units.

[2] = biological target: T2, LexA (GSG)2rGR2 / B42 eDHFR (UniProt P06536+P0ABQ4, C656G/F620S); experiment: β-galactosidase activity assay, strain V506Y
T2 construct: expressed in transfected cells; host or cells: S. cerevisiae FY250 with pMW106 lacZ reporter
T2 sequence (P06536 524-795 F620S/C656G limits assumed): T1 sequence (P06536 524-795 F620S/C656G limits assumed)
T2 sequence (P0ABQ4 1-159): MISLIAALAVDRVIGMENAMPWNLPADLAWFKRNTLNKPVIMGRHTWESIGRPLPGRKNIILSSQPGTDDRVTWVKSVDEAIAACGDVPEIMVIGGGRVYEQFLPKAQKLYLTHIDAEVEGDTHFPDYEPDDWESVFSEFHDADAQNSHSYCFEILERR
From the text: as §1, §2

[3] = biological target: T3, LexA (GSG)2mDHFR / B42 gly6rGR2 (UniProt P00375+P06536, C656G/F620S); experiment: β-galactosidase activity assay, strain V503Y
T3 construct: expressed in transfected cells; host or cells: S. cerevisiae FY250 with pMW106 lacZ reporter
T3 sequence (P00375 1-187): T1 sequence (P00375 1-187)
T3 sequence (P06536 524-795 F620S/C656G limits assumed): T1 sequence (P06536 524-795 F620S/C656G limits assumed)
From the text: as §1, §2

[4] = biological target: T4, LexA (GSG)2eDHFR / B42 (GSG)rGR2 (UniProt P06536+P0ABQ4, C656G/F620S); experiment: β-galactosidase activity assay, strain V501Y
T4 construct: rat Glucocorticoid Receptor (aa 524-795) with point mutations; expressed in transfected cells; host or cells: S. cerevisiae FY250
T4 sequence (P0ABQ4 1-159): T2 sequence (P0ABQ4 1-159)
T4 sequence (P06536 524-795 F620S/C656G limits assumed): T1 sequence (P06536 524-795 F620S/C656G limits assumed)
From the text: as §1, §2

LexA rGR2 / B42 eDHFR = biological target: T5, LexA rGR2 / B42 eDHFR (UniProt P06536+P0ABQ4, C656G/F620S); experiment: β-galactosidase activity assay, strain V505Y
T5 construct: rat Glucocorticoid Receptor (aa 524-795) with point mutations; expressed in transfected cells; host or cells: S. cerevisiae FY250
T5 sequence (P06536 524-795 F620S/C656G limits assumed): T1 sequence (P06536 524-795 F620S/C656G limits assumed)
T5 sequence (P0ABQ4 1-159): T2 sequence (P0ABQ4 1-159)
From the text: as §1, §2

[5] = biological target: T6, LexA rGR2 / B42 (GSG)2mDHFR (UniProt P00375+P06536, C656G/F620S); experiment: β-galactosidase activity assay, strain V511Y
T6 construct: expressed in transfected cells; host or cells: S. cerevisiae FY250 with pMW106 lacZ reporter
T6 sequence (P06536 524-795 F620S/C656G limits assumed): T1 sequence (P06536 524-795 F620S/C656G limits assumed)
T6 sequence (P00375 1-187): T1 sequence (P00375 1-187)
From the text: as §1, §2

[6] = biological target: T7, LexA (GSG)2rGR2 / B42 mDHFR (UniProt P00375+P06536, C656G/F620S); experiment: β-galactosidase activity assay, strain V508Y
T7 construct: expressed in transfected cells; host or cells: S. cerevisiae FY250 with pMW106 lacZ reporter
T7 sequence (P06536 524-795 F620S/C656G limits assumed): T1 sequence (P06536 524-795 F620S/C656G limits assumed)
T7 sequence (P00375 1-187): T1 sequence (P00375 1-187)
From the text: as §1, §2

[7] = biological target: T8, LexA (GSG)2mDHFR / B42 rGR2 (UniProt P00375+P06536, C656G/F620S); experiment: β-galactosidase activity assay, strain V502Y
T8 construct: rat Glucocorticoid Receptor (aa 524-795) with point mutations; expressed in transfected cells; host or cells: S. cerevisiae FY250
T8 sequence (P00375 1-187): T1 sequence (P00375 1-187)
T8 sequence (P06536 524-795 F620S/C656G limits assumed): T1 sequence (P06536 524-795 F620S/C656G limits assumed)
From the text: as §1, §2

LexA rGR2 / B42 mDHFR = biological target: T9, LexA rGR2 / B42 mDHFR (UniProt P00375+P06536, C656G/F620S); experiment: β-galactosidase activity assay, strain V507Y
T9 construct: rat Glucocorticoid Receptor (aa 524-795) with point mutations; expressed in transfected cells; host or cells: S. cerevisiae FY250
T9 sequence (P06536 524-795 F620S/C656G limits assumed): T1 sequence (P06536 524-795 F620S/C656G limits assumed)
T9 sequence (P00375 1-187): T1 sequence (P00375 1-187)
From the text: as §1, §2

[8] = biological target: T10, LexA eDHFR / B42 gly6rGR2 (UniProt P06536+P0ABQ4, C656G/F620S); experiment: β-galactosidase activity assay, strain V375Y
T10 construct: rat Glucocorticoid Receptor (aa 524-795) with point mutations; expressed in transfected cells; host or cells: S. cerevisiae FY250
T10 sequence (P0ABQ4 1-159): T2 sequence (P0ABQ4 1-159)
T10 sequence (P06536 524-795 F620S/C656G limits assumed): T1 sequence (P06536 524-795 F620S/C656G limits assumed)
From the text: as §1, §2

SMILES: C[C@@H]1C[C@H]2C3CCC4=CC(=O)C=C[C@]4(C)[C@@]3(F)[C@@H](O)C[C@]2(C)[C@@]1(O)C(=O)NCCSCc1cccc(CSCC[C@H](NC(=O)c2ccc(N(C)Cc3cnc4nc(N)nc(N)c4n3)cc2)C(=O)O)c1 (stereo partly shown) [DM1]
- B-gal activity [1]: 12 β-galactosidase units
- B-gal activity [2]: 519 β-galactosidase units
- B-gal activity [3]: −5 β-galactosidase units
- B-gal activity [4]: 4662 β-galactosidase units
- B-gal activity (LexA rGR2 / B42 eDHFR): 557 β-galactosidase units
- B-gal activity [5]: −113 β-galactosidase units
- B-gal activity [6]: 0 β-galactosidase units
- B-gal activity [7]: 21 β-galactosidase units
- B-gal activity (LexA rGR2 / B42 mDHFR): −7 β-galactosidase units
- B-gal activity [8]: 4978 β-galactosidase units
